Results: US10906880B2, “Kind of isothiazole oxime ether-containing strobilurin derivatives and its preparation methods and application” (priority 2016, dated 2021)
Where two headings read alike, the source gives them in different places.

Tests used:
[1] = test system: Alternaria solani; test: Fungicide activity, mycelial growth inhibition on PDA plate; assay type: cell-based; details: for inhibition at 50 µg/mL: Alternaria solani, read-out: Fungicidal activity inhibition, AS
[2] = test system: Cercospora arachidicola; test: as above; assay type: cell-based; details: for inhibition at 50 µg/mL: Mycosphaerella arachidis, read-out: Fungicidal activity inhibition, CA
[3] = test system: Gibberella zeae; test: microbe, parasite or virus in culture; assay type: cell-based; details: for Fungicidal activity inhibition, GZ: 50 μg/mL, G. zeae
[4] = test system: Physalospora piricola; test: Fungicide activity, mycelial growth inhibition on PDA plate; assay type: cell-based; details: for inhibition at 50 µg/mL: 50 μg/mL, P. piricola, read-out: Fungicidal activity inhibition, PP
[5] = test system: Botrytis cinerea; test: as above; assay type: cell-based; details: for inhibition at 50 µg/mL: Botrytis cinerea, read-out: Fungicidal activity inhibition, BC
[6] = test system: Sclerotinia sclerotiorum; test: as above; assay type: cell-based; details: for inhibition at 50 µg/mL: Sclerotinia sclerotiorum, read-out: Fungicidal activity inhibition, SS
[7] = test system: Rhizoctonia cerealis; test: as above; assay type: cell-based; details: for inhibition at 50 µg/mL: Ceratobasidium cereale, read-out: Fungicidal activity inhibition, RC
[8] = test system: Pellicularia sasakii; test: as above; assay type: cell-based; details: for inhibition at 50 µg/mL: 50 μg/mL, P. sasakii, read-out: Fungicidal activity inhibition, PS
[9] = test system: Phytophthora infestans (Mont) de Bary; test: microbe, parasite or virus in culture; assay type: cell-based; details: for Fungicidal activity inhibition, PI: 50 μg/mL, P. infestans (Mont.) de Bary; for inhibition at 50 µg/mL: Phytophthora infestans, read-out: Fungicidal activity inhibition, PI, 50 μg/mL, P. infestans (Mont.) de Bary
[10] = test system: TMV; test: Anti-TMV activity on tobacco, protection mode; assay type: in vivo, tobacco mosaic virus; details: 100 μg/mL; for inhibition at 100 µg/mL: Tobacco mosaic virus, read-out: Anti-TMV activity inhibition, Protection effect
[11] = test system: TMV; test: Anti-TMV activity on tobacco, induction mode (systemic acquired resistance); assay type: in vivo, tobacco mosaic virus; details: 100 μg/mL; for inhibition at 100 µg/mL: Tobacco mosaic virus, read-out: Anti-TMV activity inhibition, Induction effect
[12] = test system: TMV; test: Anti-TMV activity on tobacco, curative mode; assay type: in vivo, tobacco mosaic virus; details: 100 μg/mL, tobacco; for inhibition at 100 µg/mL: Tobacco mosaic virus, read-out: Anti-TMV activity inhibition, Curative effect
[13] = test system: TMV; test: Anti-TMV activity on tobacco, inactivation mode; assay type: in vivo, tobacco mosaic virus; details: 100 μg/mL; for inhibition at 100 µg/mL: Tobacco mosaic virus, read-out: Anti-TMV activity inhibition, Inactivation effect

SMILES | Fungicidal activity inhibition, PI [9] [%] | inhibition at 50 µg/mL ([1]; 50 μg/mL, A. solani) [%] | inhibition at 50 µg/mL ([2]; 50 μg/mL, C. arachidicola) [%] | inhibition at 50 µg/mL [2] [%] | inhibition at 50 µg/mL [4] [%] | inhibition at 50 µg/mL ([5]; 50 μg/mL, B. cinerea) [%] | inhibition at 50 µg/mL ([6]; 50 μg/mL, S. sclerotiorum) [%] | inhibition at 50 µg/mL ([7]; 50 μg/mL, R. cerealis) [%] | inhibition at 50 µg/mL [7] [%] | inhibition at 50 µg/mL [8] [%] | inhibition at 100 µg/mL [12] [%] | inhibition at 100 µg/mL [10] [%] | melting point [°C] | inhibition at 50 µg/mL [6] [%] | inhibition at 100 µg/mL [13] [%] | inhibition at 100 µg/mL [11] [%] | other results
CO/C=C(/C(=O)OC)c1ccccc1Oc1cc(Oc2ccccc2C#N)ncn1 [Azoxystrobin, reference compound] | 46.88 |  |  |  |  |  |  |  |  |  |  |  |  |  |  |  | Fungicidal activity inhibition, AS [1]: 75.00%; Fungicidal activity inhibition, CA [2]: 55.56%; Fungicidal activity inhibition, GZ [3]: 71.43%; Fungicidal activity inhibition, PP [4]: 100%; Fungicidal activity inhibition, BC [5]: 91.18%; Fungicidal activity inhibition, SS [6]: 88.10%; Fungicidal activity inhibition, RC [7]: 84.06%; Fungicidal activity inhibition, PS [8]: 80.77%
CSC(=O)c1cccc2nnsc12 [BTH, reference compound] |  |  |  |  |  |  |  |  |  |  |  |  |  |  |  |  | Anti-TMV activity inhibition, Protection effect [10]: 78.10 ± 0.54%; Anti-TMV activity inhibition, Induction effect [11]: 78.00 ± 1.34%
CO/N=C(/C(=O)OC)c1ccccc1CO/N=C(\C)c1snc(Cl)c1Cl [CL04-15A] |  | 47.1 | 50 | > 30 | 53 | 100 | 100 | 85.5 | > 50 | 76.9 | 1.52 ± 0.62 | > 40 | 73 to 75 |  |  |  | inhibition at 50 µg/mL [1]: > 30%; inhibition at 50 µg/mL ([3]; Fusarium graminearum, read-out: Fungicidal activity inhibition, GZ, 50 μg/mL, G. zeae): > 30%
CO/N=C(/C(=O)OC)c1ccccc1CO/N=C(C)/C=C/c1snc(Cl)c1Cl [CL04-17] |  | 35.7 | 50 | > 30 | 47.8 | 100 | 86.7 | 81.5 | > 50 | 58.8 | > 30 | 29.3 ± 1.31 | 105 to 107 | > 40 | > 30 | > 30 | inhibition at 50 µg/mL [1]: > 30%; inhibition at 50 µg/mL [9]: > 40%
C#CCNC(=O)/C(=N/OC)c1ccccc1CO/N=C(\C)c1snc(Cl)c1Cl [CL04-22B] |  | 28.6 | 35.7 | > 30 | 49.1 | 51.9 | 100 | 86.9 | > 50 | 73.3 | 1.52 ± 0.62 | > 40 | 120 to 122 |  | > 30 |  | Fungicidal activity inhibition, GZ [3]: 100%; inhibition at 50 µg/mL [5]: > 45%
CO/N=C(/C(=O)NC1CC1)c1ccccc1CO/N=C(\C)c1snc(Cl)c1Cl [CL04-22C] | 100 | 27.9 | 44 | > 30 | 61.4 | 47.4 | 80 | 61 | > 50 | 56.8 | 4.62 ± 0.55 | 23.6 ± 0.57 | 115 to 117 | > 40 | 4.44 ± 0.85 |  | inhibition at 50 µg/mL [5]: > 45%
CO/N=C(/C(=O)NC(C)(C)CSC)c1ccccc1CO/N=C(\C)c1snc(Cl)c1Cl [CL04-22E] |  | 27.3 | 45.8 | > 30 | 42.9 | 62.5 | 29.4 | 76 | > 50 | 21.2 | 20.2 ± 5.58 | 22.7 ± 2.05 |  |  | > 30 | 12.7 ± 6.05 | inhibition at 50 µg/mL [5]: > 45%; inhibition at 50 µg/mL [9]: 28.6%
C#CCNC(=O)/C(=N/OC)c1ccccc1CO/N=C(\N)c1snc(Cl)c1Cl [CL04-25A] | 100 | 8.2 | 20 |  | 19.3 | 42.1 | 46.7 | 65.8 | > 50 | 46 |  | > 40 | 106 to 108 | > 40 | 0 |  | 
CO/N=C(/C(=O)NC1CC1)c1ccccc1CO/N=C(\N)c1snc(Cl)c1Cl [CL04-25B] |  | 21.3 | 28 |  | 22.8 | 36.8 | 73.3 | 85.4 | > 50 | 18.9 | 20.5 ± 1.84 | 19.6 ± 3.36 |  | > 40 | 0 | 18.6 ± 3.76 | inhibition at 50 µg/mL [9]: 33.3%
CO/N=C(/C(=O)NC1CC1)c1ccccc1CO/N=C(C)/C=C/c1snc(Cl)c1Cl [CL04-32C] | 100 | 47.5 | 60 | > 30 | 71.9 | 57.9 | 73.3 | 70.7 | > 50 | 67.6 | 31.6 ± 3.91 | 19 ± 0.72 | 95 to 97 | > 40 | > 30 | 16 ± 7.71 | inhibition at 50 µg/mL [1]: > 30%; inhibition at 50 µg/mL [5]: > 45%
CO/C=C(/C(=O)OC)c1ccccc1CO/N=C(C)/C=C/c1ccc(Cl)cc1 [Enestroburin, reference compound] | 32.97 |  |  |  |  |  |  |  |  |  |  |  |  |  |  |  | Fungicidal activity inhibition, AS [1]: 50.00%; Fungicidal activity inhibition, CA [2]: 55.22%; Fungicidal activity inhibition, GZ [3]: 21.54%; Fungicidal activity inhibition, PP [4]: 59.09%; Fungicidal activity inhibition, BC [5]: 48.57%; Fungicidal activity inhibition, SS [6]: 44.00%; Fungicidal activity inhibition, RC [7]: 73.97%; Fungicidal activity inhibition, PS [8]: 57.50%
N#Cc1ccccc1NC(=O)c1snc(Cl)c1Cl [Isotianil, reference compound] |  |  |  |  |  |  |  |  |  |  |  |  |  |  |  |  | Anti-TMV activity inhibition, Curative effect [12]: 27.31 ± 2.12%; Anti-TMV activity inhibition, Inactivation effect [13]: 20.77 ± 7.30%; Anti-TMV activity inhibition, Protection effect [10]: 24.80 ± 5.85%; Anti-TMV activity inhibition, Induction effect [11]: 44.44 ± 5.18%
Nc1ccc(S(=O)(=O)Nc2nccs2)cc1 [SZG-7, reference compound] |  |  |  |  |  |  |  |  |  |  |  |  |  |  |  | 79 ± 2.27 | 
Cc1ccc(NC(=O)c2snnc2C)cc1Cl [TDL, Tiadinil, reference compound] |  |  |  |  |  |  |  |  |  |  |  |  |  |  |  | 65 ± 2 | 
